Data as given in ChEMBL document CHEMBL5120901, “Batatasin III, a Constituent of Dendrobium scabrilingue, Improves Murine Pain-like Behaviors with a Favorable CNS Safety Profile” (J Nat Prod, 2022).
Calls of active or inactive are those of the source. The rule behind the calls is not given here.

What was measured:
Mus musculus [1] = test: Analgesic activity against formalin-induced inflammatory pain-like behaviour ICR mouse model assessed as inhibition of hind paw licking behaviour at 50 mg/kg, ip administered 60 mins prior to formalin challenge and measured after 10 to 40 mins by formalin test; format: functional; conditions: time 70-100 min
Mus musculus [2] = test: Analgesic activity against formalin-induced inflammatory pain-like behaviour ICR mouse model assessed as inhibition of hind paw licking behaviour at 12.5 to 50 mg/kg, ip administered 60 mins prior to formalin challenge and measured after 10 to 40 mins by formalin test; format: functional, organism-based; conditions: dose 12.5-50 mg/kg, time 70-100 min, DDE = dose-dependent effect
Mus musculus [3] = test: (§1) Anti-inflammatory activity against LPS-induced inflammatory pain-like behaviour ICR mouse model assessed as improvement in locomotor activity by measuring increased mobile behaviours at 50 mg/kg, ip treated with LPS for 2 hrs followed by drug administration for 1 hr and measured for 5 mins by LABORAS analysis; format: functional, organism-based; conditions: time 65.0 min
Mus musculus [4] = test: as §1, with “increase in animal's movement speed in LABORAS arena” for “increased mobile behaviours”; format: functional, organism-based; conditions: time 65.0 min
Mus musculus [5] = test: as §1, with “increase in distance travelled in LABORAS arena” for “increased mobile behaviours”; format: functional, organism-based; conditions: time 65.0 min
Mus musculus [6] = test: as §1, with “decrease in immobility behaviour” for “increased mobile behaviours”; format: functional, organism-based; conditions: time 65.0 min
Mus musculus [7] = test: Anti-inflammatory activity against LPS-induced inflammatory pain-like behaviour ICR mouse model assessed as reduction in TNF-alpha levels in plasma at 50 mg/kg, ip treated with LPS for 2 hrs followed by drug administration for 1 hr by ELISA; format: functional, organism-based
Mus musculus [8] = test: Anti-inflammatory activity against LPS-induced inflammatory pain-like behaviour ICR mouse model assessed as reduction in IL-6 levels in plasma at 50 mg/kg, ip treated with LPS for 2 hrs followed by drug administration for 1 hr by ELISA; format: functional, organism-based
RAW264.7 [9] = test: Cytotoxicity against mouse RAW264.7 cells assessed as reduction in cell viability at 100 uM incubated for 24 hrs by MTT assay; format: toxicity, cell-based; conditions: raw264.7, 24 h
BV-2 [10] = test: Cytotoxicity against […] cells assessed as reduction in cell viability at 100 uM incubated for 24 hrs by MTT assay; format: toxicity, cell-based; conditions: mouse, bv-2, 24 h
RAW264.7 [11] = test: Anti-inflammartory activity in mouse RAW264.7 cells assessed as inhibition of LPS-induced NO production pretreated with compound for 1 hr followed by incubation with LPS for 12 hrs by Griess reagent based analysis; format: functional, cell-based; conditions: dose 12.5-50 µM, time 13.0 hrs, DDE = dose-dependent effect
RAW264.7 [12] = test: Anti-inflammartory activity against LPS-activated mouse RAW264.7 cells assessed as reduction in TNF-alpha levels pretreated with compound for 1 hr followed by incubation with LPS for 12 hrs by ELISA; format: functional, cell-based; conditions: dose 12.5-50 µM, time 13.0 hrs, DDE = dose-dependent effect
[13] = CNS toxicity in naive ICR mouse assessed as motor coordination at 50 mg/kg, ip measured after 240 mins by rotarod test; format: organism-based; conditions: in vivo, 4 h
RAW264.7 [14] = test: Anti-inflammartory activity against LPS-activated mouse RAW264.7 cells assessed as reduction in IL-6 levels pretreated with compound for 1 hr followed by incubation with LPS for 12 hrs by ELISA; format: functional, cell-based; conditions: dose 12.5-50 µM, time 13.0 hrs, DDE = dose-dependent effect
BV-2 [15] = test: Anti-inflammatory activity in […] cells assessed as inhibition of LPS-induced NO production pretreated with compound for 1 hr followed by coincubation with LPS for 24 hrs by Griess reagent based analysis; format: functional, cell-based; conditions: Mus musculus, dose 12.5-50 µM, time 25.0 hrs, DDE = dose-dependent effect
BV-2 [16] = test: Anti-inflammartory activity against LPS-activated […] cells assessed as reduction in TNF-alpha levels pretreated with compound for 1 hr followed by co-incubation with LPS for 24 hrs by ELISA; format: functional, cell-based; conditions: Mus musculus, dose 12.5-50 µM, time 25.0 hrs, DDE = dose-dependent effect
BV-2 [17] = test: Anti-inflammartory activity against LPS-activated […] cells assessed as reduction in IL-6 levels pretreated with compound for 1 hr followed by co-incubation with LPS for 24 hrs by ELISA; format: functional, cell-based; conditions: Mus musculus, dose 12.5-50 µM, time 25.0 hrs, DDE = dose-dependent effect
[18] = CNS toxicity in naive ICR mouse assessed as spontaneous locomotor activity by measuring climbing behaviour at 50 mg/kg, ip and measured for 30 mins by LABORAS automated behavioral analysis; format: organism-based; conditions: in vivo, 0.5 h
[19] = CNS toxicity in naive ICR mouse assessed as spontaneous locomotor activity at 50 mg/kg, ip and measured for 30 mins by LABORAS automated behavioral analysis; format: organism-based; conditions: in vivo, 0.5 h
[20] = CNS toxicity in naive ICR mouse assessed as spontaneous locomotor activity by measuring immobility behaviour at 50 mg/kg, ip and measured for 30 mins by LABORAS automated behavioral analysis; format: organism-based; conditions: in vivo, 0.5 h
[21] = CNS toxicity in naive ICR mouse assessed as spontaneous locomotor activity by measuring rearing behaviour at 50 mg/kg, ip and measured for 30 mins by LABORAS automated behavioral analysis; format: organism-based; conditions: in vivo, 0.5 h
[22] = CNS toxicity in naive ICR mouse assessed as spontaneous locomotor activity by measuring animal's movement speed in arena at 50 mg/kg, ip and measured for 30 mins by LABORAS automated behavioral analysis; format: organism-based; conditions: in vivo, 0.5 h
[23] = CNS toxicity in naive ICR mouse assessed as spontaneous locomotor activity by measuring distance travelled in arena at 50 mg/kg, ip and measured for 30 mins by LABORAS automated behavioral analysis; format: organism-based; conditions: in vivo, 0.5 h
[24] = Toxicity in naive ICR mouse assessed as effect on food intake at 50 mg/kg, ip measured after 24 hrs; format: organism-based; conditions: in vivo
[25] = CNS toxicity in naive ICR mouse assessed as spontaneous locomotor activity by measuring climbing behaviour at 50 mg/kg, ip and measured for 2 hrs by LABORAS automated behavioral analysis; format: organism-based; conditions: in vivo
[26] = CNS toxicity in naive ICR mouse assessed as spontaneous locomotor activity at 50 mg/kg, ip and measured for 2 hrs by LABORAS automated behavioral analysis; format: organism-based; conditions: in vivo
[27] = CNS toxicity in naive ICR mouse assessed as spontaneous locomotor activity by measuring immobility behaviour at 50 mg/kg, ip and measured for 2 hrs by LABORAS automated behavioral analysis; format: organism-based; conditions: in vivo
[28] = CNS toxicity in naive ICR mouse assessed as spontaneous locomotor activity by measuring rearing behaviour at 50 mg/kg, ip and measured for 2 hrs by LABORAS automated behavioral analysis; format: organism-based; conditions: in vivo
[29] = CNS toxicity in naive ICR mouse assessed as spontaneous locomotor activity by measuring anaimal's movement speed in arena at 50 mg/kg, ip and measured for 2 hrs by LABORAS automated behavioral analysis; format: organism-based; conditions: in vivo
[30] = CNS toxicity in naive ICR mouse assessed as spontaneous locomotor activity by measuring distance travelled in arena at 50 mg/kg, ip and measured for 2 hrs by LABORAS automated behavioral analysis; format: organism-based; conditions: in vivo
[31] = Toxicity in naive ICR mouse assessed as effect on body weight at 50 mg/kg, ip measured after 24 hrs; format: organism-based; conditions: in vivo
[32] = Toxicity in naive ICR mouse assessed as effect on water intake at 50 mg/kg, ip measured after 24 hrs; format: organism-based; conditions: in vivo

Q: For COc1cc(O)cc(CCc2cccc(O)c2)c1 [BATATASIN III], which inhibition in vivo at 50 mg/kg (Mus musculus [1]) is on record?
A: 69.9%

Q: What about the Activity (Mus musculus [2]) of the same molecule?
A: Dde

Q: And the Activity (Mus musculus [3])?
A: Active

Q: And the Activity (Mus musculus [4])?
A: Active

Q: And the Activity (Mus musculus [5])?
A: Active

Q: What about the Activity (Mus musculus [6]) of the same molecule?
A: Active

Q: And the Activity (Mus musculus [7])?
A: Active

Q: What about the Activity (Mus musculus [8]) of the same molecule?
A: Active

Q: What about the Activity (RAW264.7 [9]) of the same molecule?
A: Toxic

Q: And the Activity (BV-2 [10])?
A: Toxic

Q: What about the Activity (RAW264.7 [11]) of the same molecule?
A: Dde

Q: What about the Activity (RAW264.7 [12]) of the same molecule?
A: Dde

Q: What about the Activity [13] of the same molecule?
A: Non-Toxic

Q: And the Activity (RAW264.7 [14])?
A: Dde

Q: What about the Activity (BV-2 [15]) of the same molecule?
A: Dde

Q: And the Activity (BV-2 [16])?
A: Dde

Q: And the Activity (BV-2 [17])?
A: Dde

Q: What about the Activity [18] of the same molecule?
A: Non-Toxic

Q: And the Activity [19]?
A: Non-Toxic

Q: What about the Activity [20] of the same molecule?
A: Non-Toxic

Q: And the Activity [21]?
A: Non-Toxic

Q: What about the Activity [22] of the same molecule?
A: Non-Toxic

Q: And the Activity [23]?
A: Non-Toxic

Q: And the Activity [24]?
A: Non-Toxic

Q: And the Activity [25]?
A: Non-Toxic

Q: What about the Activity [26] of the same molecule?
A: Non-Toxic

Q: What about the Activity [27] of the same molecule?
A: Non-Toxic

Q: And the Activity [28]?
A: Non-Toxic

Q: What about the Activity [29] of the same molecule?
A: Non-Toxic

Q: What about the Activity [30] of the same molecule?
A: Non-Toxic

Q: And the Activity [31]?
A: Non-Toxic

Q: What about the Activity [32] of the same molecule?
A: Non-Toxic
